# Measurements published in PubChem BioAssay (NCI).
# Where “and” joins values, the source holds several entries; their conditions need not be identical. Equal entries are not always repeated.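 Values below derive from 48-hour exposures of cells grown in 96-well plates, with endpoints linearly interpolated between the two concentrations bracketing the appropriate inhibition level. Here, GI50 denotes the concentration required for 50% inhibition of growth. TGI: total growth inhibition.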
# Experiments:
# Assay in all cases: NCI anticancer screen, dose series, 48 h
# 786-0 renal = system: 786-0 renal
# A498 renal = system: A498 renal
# A549 NSCLC = system: A549 NSCLC
# MCF7 breast = system: MCF7 breast
# NCI-H23 lung = system: NCI-H23 lung
# SK-MEL-2 melanoma = system: SK-MEL-2 melanoma
# SK-MEL-28 melanoma = system: SK-MEL-28 melanoma
# TK-10 renal = system: TK-10 renal
# U251 CNS = system: U251 CNS
# UO-31 renal = system: UO-31 renal
Structure (SMILES),GI50 (786-0 renal),TGI (786-0 renal) [µM],GI50 (A498 renal),TGI (A498 renal) [µM],GI50 (A549 NSCLC),TGI (A549 NSCLC) [µM],GI50 (MCF7 breast),TGI (MCF7 breast) [µM],GI50 (NCI-H23 lung),TGI (NCI-H23 lung),GI50 (SK-MEL-2 melanoma),TGI (SK-MEL-2 melanoma),GI50 (SK-MEL-28 melanoma),TGI (SK-MEL-28 melanoma) [µM],GI50 (TK-10 renal),TGI (TK-10 renal),GI50 (U251 CNS),TGI (U251 CNS) [µM],GI50 (UO-31 renal),TGI (UO-31 renal)
COc1ccc(C2CC(c3cccc(Nc4ccnc5cc(Cl)ccc45)c3)=NN2C=O)cc1 (stereo not given),0.665 µM,30.8,0.325 µM,4.2,0.527 µM,18.3,0.361 µM,> 100,0.967 µM,> 81.6 µM,0.457 µM,6.41 µM,1.13 µM,25.6,0.882 µM,7.86 µM,0.435 µM,3.98,0.989 µM,> 100 µM
CC1=CC(=O)C2=C(C)CCC3C(C)C(=O)OC3C12 (stereo not given),–,> 100,–,> 100,–,> 100,–,> 100,–,> 100 µM,–,> 100 µM,–,> 100,–,> 100 µM,–,> 100,–,> 100 µM
O=S(=O)(NCCCNc1nccc(-c2c(-c3ccc(O)cc3)nc3sccn23)n1)c1ccc(F)cc1,3.22 µM,> 100,1.55 µM,5.16,2.64 µM,20.3,2.16 µM,5.91,2.24 µM,7.7 µM,1.18 µM,2.81 µM,0.0528 µM,6.23,4.48 µM,32.2 µM,2.92 µM,12.4,2.33 µM,7.3 µM
Cc1cccc(N(C)C(=O)[C@@H]2[C@H](O)CCN2c2nc(C)cc(C(F)(F)F)c2C#N)c1,21.6 µM,66.9,21.9 µM,69.8,21.9 µM,> 100,26.1 µM,> 100,31.2 µM,> 100 µM,15.9 µM,35 µM,24.3 µM,> 100,28.5 µM,> 100 µM,28.8 µM,> 100,14.8 µM,29.5 µM
Nc1nccc(-c2c(-c3ccc(F)cc3)ncn2C2CCNCC2)n1,16 µM and 5.59 µM,> 25,8.88 µM and 2.16 µM,> 25,1.97 µM and 1.66 µM,> 25,0.62 µM and 0.827 µM,> 17.2,9.71 µM and 4.41 µM,> 25 µM and 18.8 µM,13.6 µM and 3.64 µM,> 25 µM and 13 µM,10.2 µM and 8.41 µM,> 25,7.66 µM and 2.79 µM,> 25 µM and 14.8 µM,3.67 µM and 1.95 µM,> 25,10.9 µM and 3.04 µM,> 25 µM and 17.4 µM
CCOC(=O)C1Cc2c(cc3c4c(cccc24)N(C(C)=O)C3)N(C)C1 (stereo not given),–,> 100,–,> 100,–,> 100,–,> 100,–,> 100 µM,–,> 100 µM,–,> 100,–,> 100 µM,–,> 100,–,> 100 µM
CCN(CCCN(C)C)Cc1cc(I)cc(C)c1O,18.6 µM,40,20.4 µM,38.6,28.3 µM,90,17.4 µM,35.8,97.2 µM,> 100 µM,19.4 µM,37.4 µM,18 µM,36.3,4.85 µM,22.6 µM,21.2 µM,43.6,35.6 µM,> 100 µM
NS(=O)(=O)c1ccc(Nc2cc(-c3cccc(O)c3)[nH]n2)cc1,> 25 µM,> 25,> 25 µM,> 25,> 25 µM,> 25,> 25 µM,> 25,> 25 µM,> 25 µM,> 25 µM,> 25 µM,> 25 µM,> 25,> 25 µM,> 25 µM,24.4 µM,> 25,> 25 µM,> 25 µM
CCOC(=O)c1ccc(NC(=O)Nc2nncs2)cc1,0.474 µM,14.5,0.23 µM,0.978,0.41 µM,26.1,0.116 µM,> 32.9,0.649 µM,12.1 µM,0.734 µM,24 µM,0.25 µM,56,5.79 µM,41.2 µM,0.25 µM,12.7,1.48 µM,28.7 µM
Fc1cccc(COc2ccc(Nc3ncnc4sc(-c5cccs5)cc34)cc2Cl)c1,8.34 µM,> 18.7,6.88 µM,> 21.7,9.32 µM,> 25,0.75 µM,8.42,> 13.6 µM,> 25 µM,2.46 µM,8.83 µM,6.58 µM,> 22.8,4.76 µM,10.8 µM,5.75 µM,15.9,5.78 µM,> 24.1 µM
COc1ccc(/C=C(/C#N)C(N)=O)c(OC)c1,–,> 100,–,25.7,–,> 100,–,> 100,–,> 100 µM,–,> 100 µM,–,> 100,–,> 100 µM,–,> 100,–,26.8 µM
CC(C)(Br)C(=O)N1CCN(C(c2ccccc2)c2ccccc2)CC1,–,> 100,–,> 100,–,> 100,–,81.8,–,> 100 µM,–,> 100 µM,–,> 100,–,> 100 µM,–,> 100,–,> 100 µM
Cc1cc2nc3c4cc(O)ccc4n(CCN(C)C)c3nc2cc1C,0.929 µM,2.42,0.403 µM,2.04,0.78 µM,5.07,0.45 µM,3.26,0.833 µM,3.35 µM,1.65 µM,3.69 µM,1.56 µM,3.16,2.21 µM,6.13 µM,0.747 µM,4.46,0.292 µM,2.07 µM
